Marks after values point to notes of the source that are not given here.
Tested on: normal Wistar rats
Assay: Pancreatic insulin content in normal rats treated with TGF-α and gastrin
Format: in vivo, rat
Conditions: i.p. 0.8 μg/day each for 10 days, n=5, mean +/− SEM
Description: Animals. Mice, FVB and CD strain, were obtained from Taconic Farms, Inc., Germantown, N.Y. The TGF-α transgenic line MT-42 used, which expresses high levels of TGF-α from a metallothionein promoter, is described in Jhappan et al, Cell, 61:1137-1146 (1990). Normal Wistar and Zucker rats were allowed normal chow ad libidum with free access to water and were acclimatized for one week prior to initiation of each study. Freshly prepared streptozotocin at a dose of 80 mg/kg body weight was administered by I.V. five to seven days after induction of diabetes, the rats were randomly allocated into groups for subsequent treatment. Hormones, TGF-α and rat gastrin were reconstituted in sterile normal saline containing 0.1% BSA. […]
At the end of the study period (10 days), all animals were sacrificed and samples of pancreas taken as follows: five biopsy specimens (1-2 mg) of pancreatic tissue were taken from separate representative sites in each rat pancreas and immediately snap frozen in liquid nitrogen for analysis of insulin content. […] Pancreatic insulin content values were corrected according to protein content and finally expressed as μg insulin/mg pancreatic protein. All values calculated as mean +/− SEM and statistical significance evaluated using Student's 2-sample t-test.

In the case of “TGF-α: recombinant Human TGF-α, an EGF receptor ligand, reconstituted in sterile saline containing 0.1% BSA”, the “Pancreatic Insulin Content” value is reported as 30.4 +/− 7.4* μg insulin/mg protein.
